Patent US11419335B2, “N-arylated analogues and uses thereof” (University of Florida Research Foundation, Incorporated, priority 2016, dated 2022)
Like-named read-outs stand apart in the source and are kept apart here. Marks after values point to notes of the source that are not given here.

Tests used:
[1] = system: methicillin-sensitive Staphylococcus aureus ATCC 29213; experiment: MIC broth microdilution, S. aureus 29213; assay type: cell-based
Experimental: (§1) The minimum inhibitory concentration (MIC) for each tested compound was determined by the broth microdilution method as recommended by the Clinical and Laboratory Standards Institute (CLSI). In a 96-well plate, eleven two-fold serial dilutions of each compound were made in a final volume of 100 μL Luria Broth. Each well was inoculated with ˜10^5 bacterial cells at the initial time of incubation, prepared from a fresh log phase culture (OD600 of 0.5 to 1.0 depending on bacterial strain). […] (MIC values were supported by spectrophotometric readings at OD600). DMSO served as our vehicle and negative control in each microdilution MIC assay. DMSO was serially diluted with a top concentration of 1% v/v.
(§2) Each well was inoculated with ˜10^5 bacterial cells at the initial time of incubation, prepared from a fresh log phase culture (OD600 of 0.5 to 1.0 depending on bacterial strain). […] The concentration range tested for each compound during this study was 0.10 to 100 μM. DMSO served as our vehicle and negative control in each microdilution MIC assay. DMSO was serially diluted with a top concentration of 1% v/v. All MIC values were obtained from a minimum of three independent experiments.

[2] = system: Pseudomonas aeruginosa (PAO1); experiment: MIC broth microdilution, PAO1; assay type: cell-based
Experimental: (§3) The minimum inhibitory concentration (MIC) for each tested compound was determined by the broth microdilution method as recommended by the Clinical and Laboratory Standards Institute (CLSI). In a 96-well plate, eleven two-fold serial dilutions of each compound were made in a final volume of 100 μL Luria Broth. Each well was inoculated with ˜10^5 bacterial cells at the initial time of incubation, prepared from a fresh log phase culture (OD600 of 0.5 to 1.0 depending on bacterial strain). The MIC was defined as the lowest concentration of compound that prevented bacterial growth after incubating 16 to 18 hours at 37° C. (MIC values were supported by spectrophotometric readings at OD600). DMSO served as our vehicle and negative control in each microdilution MIC assay. DMSO was serially diluted with a top concentration of 1% v/v.
as §3, with “for each compound was” for “for each tested compound was”, “Standards Institute (CLSI).^6 In a” for “Standards Institute (CLSI). In a”, “concentration of test compound that” for “concentration of compound that”, “37° C. The concentration range tested for each compound during this study was 0.10 to 100 μM. DMSO served” for “37° C. (MIC values were supported by spectrophotometric readings at OD600). DMSO served”, “1% v/v. All MIC values were obtained from a minimum of three independent experiments.” for “1% v/v.”

[3] = system: MRSA-1 (clinical isolate); experiment: MIC broth microdilution, MRSA-1; assay type: cell-based, Staphylococcus aureus
Experimental: as §1, §2

[4] = system: SA-138 (clinical isolate); experiment: MIC broth microdilution, SA-138; assay type: cell-based, Staphylococcus aureus
Experimental: as §1, §2

[5] = system: SA-156 (clinical isolate); experiment: MIC broth microdilution, SA-156; assay type: cell-based, Staphylococcus aureus
Experimental: as §1, §2

[6] = system: methicillin-resistant Staphylococcus epidermidis (MRSE strain ATCC 35984); experiment: MIC broth microdilution, MRSE 35984; assay type: cell-based; details: for MIC S. epidermidis MRSE 35984: Table 1A; for MIC MRSE 35984: Table 4
Experimental: as §3
as §3, with “for each compound was” for “for each tested compound was”, “Standards Institute (CLSI).^6 In a” for “Standards Institute (CLSI). In a”, “concentration of test compound that” for “concentration of compound that”, “37° C. The concentration range tested for each compound during this study was 0.10 to 100 μM. DMSO served” for “37° C. (MIC values were supported by spectrophotometric readings at OD600). DMSO served”, “1% v/v. All MIC values were obtained from a minimum of three independent experiments.” for “1% v/v.”

[7] = system: MRSA BAA-1707; experiment: MIC broth microdilution, MRSA BAA-1707; assay type: cell-based, Staphylococcus aureus; details: for MIC: read-out: MIC MRSA BAA-1707; for MIC MRSA 1707: Table 4
Experimental: as §1, §2

[8] = system: SA-147 (clinical isolate); experiment: MIC broth microdilution, SA-147; assay type: cell-based, Staphylococcus aureus
Experimental: as §1, §2

[9] = system: vancomycin-resistant Enterococcus faecium (VRE strain ATCC 700221); experiment: MIC broth microdilution, VRE 700221; assay type: cell-based; details: for MIC E. faecium VRE 700221: Table 1A; for MIC VRE 700221: Table 4
Experimental: as §3
as §3, with “for each compound was” for “for each tested compound was”, “Standards Institute (CLSI).^6 In a” for “Standards Institute (CLSI). In a”, “concentration of test compound that” for “concentration of compound that”, “37° C. The concentration range tested for each compound during this study was 0.10 to 100 μM. DMSO served” for “37° C. (MIC values were supported by spectrophotometric readings at OD600). DMSO served”, “1% v/v. All MIC values were obtained from a minimum of three independent experiments.” for “1% v/v.”

[10] = system: SA-129 (clinical isolate); experiment: MIC broth microdilution, SA-129; assay type: cell-based, Staphylococcus aureus
Experimental: as §1, §2

[11] = system: Acinetobacter baumannii (ATCC 1794); experiment: MIC broth microdilution, A. baumannii 1794; assay type: cell-based; details: for MIC A. baumannii 1794: Table 1A, in µM; for MIC A. bau. 1794: Table 4
Experimental: as §3
as §3, with “for each compound was” for “for each tested compound was”, “Standards Institute (CLSI).^6 In a” for “Standards Institute (CLSI). In a”, “concentration of test compound that” for “concentration of compound that”, “37° C. The concentration range tested for each compound during this study was 0.10 to 100 μM. DMSO served” for “37° C. (MIC values were supported by spectrophotometric readings at OD600). DMSO served”, “1% v/v. All MIC values were obtained from a minimum of three independent experiments.” for “1% v/v.”

[12] = system: methicillin-resistant Staphylococcus aureus MRSA-2 (clinical isolate); experiment: MIC broth microdilution, MRSA-2; assay type: cell-based
Experimental: as §3
as §3, with “for each compound was” for “for each tested compound was”, “Standards Institute (CLSI).^6 In a” for “Standards Institute (CLSI). In a”, “concentration of test compound that” for “concentration of compound that”, “37° C. The concentration range tested for each compound during this study was 0.10 to 100 μM. DMSO served” for “37° C. (MIC values were supported by spectrophotometric readings at OD600). DMSO served”, “1% v/v. All MIC values were obtained from a minimum of three independent experiments.” for “1% v/v.”

[13] = system: MRSA BAA-44; experiment: MIC broth microdilution, MRSA BAA-44; assay type: cell-based, Staphylococcus aureus
Experimental: as §1, §2

Row | SMILES | MIC PAO1 ([2]; Table 1A) [µM] | MIC PAO1 ([2]; Table 4) [µM] | MIC SA-156 ([5]; Table 1B) | MIC SA-156 ([5]; Table 3) | MIC S. epidermidis MRSE 35984 [6] | MIC MRSE 35984 [6] [a micromolar] | MIC MRSA 1707 [7] | MIC SA-147 ([8]; Table 1B) | MIC SA-147 ([8]; Table 3) | MIC E. faecium VRE 700221 [9] | MIC VRE 700221 [9] | MIC ([10]; Table 1B) [µM] | MIC ([10]; Table 3) [µM] | MIC A. baumannii 1794 [11] | MIC A. bau. 1794 [11] [µM] | MIC MRSA-2 ([12]; Table 1A) | MIC MRSA-2 ([12]; Table 1B) | MIC MRSA-2 ([12]; Table 3) | MIC MRSA-2 ([12]; Table 4) [a micromolar] | MIC MRSA BAA-44 ([13]; Table 1B) | further results
1 | CCCCCCCCCCCCCCCCn1cc[n+](Cc2cccc(OC)c2)c1C.[Br-] [Compound 17] | > 100 | >100 | 2.35^a μM | 2.35^a μM | 2.35^a | 2.35 | 1.56 µM | 2.35^a μM | 2.35^a μM | 1.56 µM | 1.56 µM | 3.13 | 3.13 | >100* | >100 | 1.56 µM | 2.35^a μM | 2.35^a μM | 2.35 | 2.35^a μM | MIC ([1]; Table 1B): 3.13 µM; MIC ([1]; Table 3): 3.13 µM; MIC MRSA-1 ([3]; Table 1B): 4.69^a μM; MIC MRSA-1 ([3]; Table 3): 4.69^a μM; MIC ([4]; Table 1B): 3.13 µM; MIC ([4]; Table 3): 3.13 µM; MIC ([7]; Table 1B): 1.56 µM; MIC ([7]; Table 3): 1.56 µM; MIC MRSA BAA-44 ([13]; Table 3): 2.35^a μM
2 | CCCCCCCCCCCCCCCCn1cc[n+](CCCC)c1C.[Br-] [Compound 9] | > 100 | >100 | 2.35^s μM | 2.35^a μM | 1.17^a | 1.17 | 2.35a micromolar | 1.17^a μM | 1.17^a μM | 1.17^a | 1.17a micromolar | 1.56 | 1.56 | 12.5 | 12.5 | 2.35^a | 2.35^a μM | 2.35^a μM | 2.35 | 2.35^a μM | MIC S. aureus 29213 ([1]; Table 1B): 2.35^a μM; MIC S. aureus 29213 ([1]; Table 3): 2.35^a μM; MIC ([3]; Table 1B): 1.56 µM; MIC ([3]; Table 3): 1.56 µM; MIC SA-138 ([4]; Table 1B): 1.17^a μM; MIC SA-138 ([4]; Table 3): 1.17^a μM; MIC MRSA BAA-1707 ([7]; Table 1B): 2.35^a μM; MIC MRSA BAA-1707 ([7]; Table 3): 2.35^a μM; MIC MRSA BAA-44 ([13]; Table 3): 2.35^a μM
